The values that follow come from ChEMBL document CHEMBL4052642, “4-Methyl-6,7-dihydro-4H-triazolo[4,5-c]pyridine-Based P2X7 Receptor Antagonists: Optimization of Pharmacokinetic Properties Leading to the Identification of a Clinical Candidate” (J Med Chem, 2017).

pIC50: −log10 of the molar value. In brackets after ≈: the same amount, converted by molar mass. Some results are limits rather than exact numbers.

One data set relates to Rattus norvegicus. Briefly: Drug level in Sprague-Dawley rat treated with(R)-(2-Chloro-3-(trifluoromethyl)phenyl)(4-methyl-1-(pyrimidin-2-yl)-1,4,6,7-tetrahydro-5H-[1,2,3]triazolo[4,5-c]pyridin-5-yl)methanone at 1 mg/kg, iv or 5 mg/kg, po by LC-MS/MS analysis. The settings on record: in vivo. Type of data set: ADME, organism-based.
Data set [1] in a line: Solubility of compound in phosphate buffer at pH 7 after 3 days. Type of data set: physicochemical.
A further data set addresses Cytochrome P450 2D6 (Homo sapiens, UniProt P10635). Nature of the data set: Inhibition of CYP2D6 in human liver microsomes using dextromethorphan as substrate after 15 mins by LC-MS/MS analysis. Type of data set: ADME.
The next data set deals with Cytochrome P450 3A4 (Homo sapiens, UniProt P08684). Briefly: Inhibition of CYP3A4 in human liver microsomes using midazolam as substrate after 15 mins by LC-MS/MS analysis. Type of data set: ADME.
The nature of data set [2]: Solubility of compound in phosphate buffer at pH 2 after 3 days. Type of data set: physicochemical.
A further data set has as its target Cytochrome P450 2C9 (Homo sapiens, UniProt P11712). Briefly: Inhibition of CYP2C9 in human liver microsomes using diclofenac as substrate after 15 mins by LC-MS/MS analysis. Type of data set: ADME.
Data set [3] addresses Voltage-gated inwardly rectifying potassium channel KCNH2 (Homo sapiens, UniProt Q12809). Nature of the data set: Inhibition of [3H]-dofetilide binding to human ERG expressed in HEK293 cells. Type of data set: cell-based.
A further data set concerns the target T1, Cytochrome P450 2C8 (Homo sapiens, UniProt P10632).
T1 sequence (P10632 whole entry): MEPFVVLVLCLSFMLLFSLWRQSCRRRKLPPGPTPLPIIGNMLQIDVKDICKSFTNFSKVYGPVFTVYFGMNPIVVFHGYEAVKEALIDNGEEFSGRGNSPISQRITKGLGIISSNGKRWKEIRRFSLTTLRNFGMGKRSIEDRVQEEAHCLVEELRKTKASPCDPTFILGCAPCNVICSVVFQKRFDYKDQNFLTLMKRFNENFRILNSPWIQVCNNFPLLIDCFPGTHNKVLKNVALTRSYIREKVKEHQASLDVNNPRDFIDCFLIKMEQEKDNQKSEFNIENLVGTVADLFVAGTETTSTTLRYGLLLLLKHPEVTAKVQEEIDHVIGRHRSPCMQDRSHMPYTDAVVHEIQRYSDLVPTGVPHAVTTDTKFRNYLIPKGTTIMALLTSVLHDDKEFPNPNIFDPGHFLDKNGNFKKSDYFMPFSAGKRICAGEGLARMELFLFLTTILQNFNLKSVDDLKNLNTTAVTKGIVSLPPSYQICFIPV
Briefly: Inhibition of CYP2C8 in human liver microsomes using paclitaxel as substrate after 15 mins by LC-MS/MS analysis. Type of data set: ADME.

The next data set addresses T2, Cytochrome P450 1A2 (Homo sapiens, UniProt P05177).
T2 sequence (P05177 whole entry): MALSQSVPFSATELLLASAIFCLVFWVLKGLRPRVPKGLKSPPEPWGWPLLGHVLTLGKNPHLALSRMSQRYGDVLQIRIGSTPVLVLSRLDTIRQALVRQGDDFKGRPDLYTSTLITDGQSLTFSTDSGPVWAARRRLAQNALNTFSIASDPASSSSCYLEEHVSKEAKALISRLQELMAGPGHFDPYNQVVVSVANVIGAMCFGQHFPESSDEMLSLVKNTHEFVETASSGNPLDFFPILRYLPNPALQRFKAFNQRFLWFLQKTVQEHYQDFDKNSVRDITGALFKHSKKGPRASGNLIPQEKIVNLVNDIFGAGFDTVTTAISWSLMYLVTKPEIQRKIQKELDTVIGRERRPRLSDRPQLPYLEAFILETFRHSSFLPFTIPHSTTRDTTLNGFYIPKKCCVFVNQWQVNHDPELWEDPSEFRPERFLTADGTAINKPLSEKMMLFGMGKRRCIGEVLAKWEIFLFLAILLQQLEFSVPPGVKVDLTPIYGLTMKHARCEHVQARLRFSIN
Briefly: Inhibition of CYP1A2 in human liver microsomes using phenacetin as substrate after 15 mins by LC-MS/MS analysis. Type of data set: ADME.

The nature of data set [4]: Protein binding in mouse plasma at 1 uM after 6 hrs by equilibrium dialysis method. It counts as ADME, cell-free. Particulars: read-out: PPB (converted).
Data set [5] in a line: Protein binding in rat plasma at 1 uM after 6 hrs by equilibrium dialysis method. Type of data set: ADME, cell-free. Particulars: read-out: PPB (converted).
Another data set concerns the target Cytochrome P450 2C19 (Homo sapiens, UniProt P33261). Nature of the data set: Inhibition of CYP2C19 in human liver microsomes using S-mephenytoin as substrate after 15 mins by LC-MS/MS analysis. Type of data set: ADME.
Data set [6] can be described thus: Protein binding in human plasma at 1 uM after 6 hrs by equilibrium dialysis method. It counts as ADME, cell-free. Particulars: read-out: PPB (converted).

Voltage-gated inwardly rectifying potassium channel KCNH2, sequence (Q12809 whole entry): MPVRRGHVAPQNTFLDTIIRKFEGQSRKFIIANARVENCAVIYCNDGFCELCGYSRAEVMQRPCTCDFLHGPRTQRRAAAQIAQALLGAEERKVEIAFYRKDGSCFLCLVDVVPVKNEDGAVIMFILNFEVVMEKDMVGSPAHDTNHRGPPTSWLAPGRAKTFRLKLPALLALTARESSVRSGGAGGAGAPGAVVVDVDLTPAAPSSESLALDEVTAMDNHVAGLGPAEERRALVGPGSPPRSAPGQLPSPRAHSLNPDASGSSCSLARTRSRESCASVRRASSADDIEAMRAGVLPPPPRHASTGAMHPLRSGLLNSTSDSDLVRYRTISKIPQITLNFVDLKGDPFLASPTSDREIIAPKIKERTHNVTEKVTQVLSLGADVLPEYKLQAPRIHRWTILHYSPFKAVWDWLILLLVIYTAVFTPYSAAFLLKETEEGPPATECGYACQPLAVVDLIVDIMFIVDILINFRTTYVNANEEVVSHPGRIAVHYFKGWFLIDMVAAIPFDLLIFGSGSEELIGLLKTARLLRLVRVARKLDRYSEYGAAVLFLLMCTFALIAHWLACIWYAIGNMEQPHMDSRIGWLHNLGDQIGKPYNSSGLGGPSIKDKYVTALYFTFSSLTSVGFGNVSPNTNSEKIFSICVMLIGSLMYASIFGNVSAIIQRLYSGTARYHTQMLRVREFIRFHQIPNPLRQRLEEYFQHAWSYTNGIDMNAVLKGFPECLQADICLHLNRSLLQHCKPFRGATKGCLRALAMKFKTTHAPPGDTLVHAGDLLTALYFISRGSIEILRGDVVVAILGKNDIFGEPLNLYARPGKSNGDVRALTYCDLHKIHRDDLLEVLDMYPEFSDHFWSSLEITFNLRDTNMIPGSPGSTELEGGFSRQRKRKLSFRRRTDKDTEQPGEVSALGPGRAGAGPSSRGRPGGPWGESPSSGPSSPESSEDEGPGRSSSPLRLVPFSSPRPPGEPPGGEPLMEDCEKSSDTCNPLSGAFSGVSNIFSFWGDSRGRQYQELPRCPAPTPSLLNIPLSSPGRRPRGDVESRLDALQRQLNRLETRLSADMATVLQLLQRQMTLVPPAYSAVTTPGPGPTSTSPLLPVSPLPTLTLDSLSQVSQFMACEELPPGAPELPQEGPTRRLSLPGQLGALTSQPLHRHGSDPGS
Cytochrome P450 2D6, sequence (P10635 whole entry): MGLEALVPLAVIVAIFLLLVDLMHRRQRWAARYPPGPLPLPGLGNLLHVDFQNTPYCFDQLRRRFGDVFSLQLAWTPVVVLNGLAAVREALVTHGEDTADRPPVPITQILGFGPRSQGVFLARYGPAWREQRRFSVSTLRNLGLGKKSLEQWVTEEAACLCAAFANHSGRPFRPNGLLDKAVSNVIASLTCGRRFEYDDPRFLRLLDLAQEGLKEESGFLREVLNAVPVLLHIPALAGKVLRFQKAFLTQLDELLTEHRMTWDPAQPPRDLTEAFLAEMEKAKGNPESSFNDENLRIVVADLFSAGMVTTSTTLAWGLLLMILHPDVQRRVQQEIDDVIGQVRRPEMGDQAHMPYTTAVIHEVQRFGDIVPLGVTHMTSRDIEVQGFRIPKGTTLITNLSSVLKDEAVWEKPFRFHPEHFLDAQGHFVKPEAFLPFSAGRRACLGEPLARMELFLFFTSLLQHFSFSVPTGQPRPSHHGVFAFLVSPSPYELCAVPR
Cytochrome P450 2C9, sequence (P11712 whole entry): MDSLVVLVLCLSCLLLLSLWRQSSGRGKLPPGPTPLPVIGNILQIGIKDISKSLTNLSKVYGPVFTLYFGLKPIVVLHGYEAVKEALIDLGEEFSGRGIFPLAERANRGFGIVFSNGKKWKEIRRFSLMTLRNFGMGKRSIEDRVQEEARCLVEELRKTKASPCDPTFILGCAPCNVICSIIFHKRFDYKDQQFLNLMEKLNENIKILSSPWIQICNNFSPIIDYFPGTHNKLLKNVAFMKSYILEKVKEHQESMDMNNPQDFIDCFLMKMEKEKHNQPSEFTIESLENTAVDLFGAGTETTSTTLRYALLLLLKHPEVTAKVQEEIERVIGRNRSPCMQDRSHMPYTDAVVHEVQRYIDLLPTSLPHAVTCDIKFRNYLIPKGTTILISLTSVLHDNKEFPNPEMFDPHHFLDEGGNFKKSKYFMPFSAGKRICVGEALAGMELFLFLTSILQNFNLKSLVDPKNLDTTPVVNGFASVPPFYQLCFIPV
Cytochrome P450 3A4, sequence (P08684 whole entry): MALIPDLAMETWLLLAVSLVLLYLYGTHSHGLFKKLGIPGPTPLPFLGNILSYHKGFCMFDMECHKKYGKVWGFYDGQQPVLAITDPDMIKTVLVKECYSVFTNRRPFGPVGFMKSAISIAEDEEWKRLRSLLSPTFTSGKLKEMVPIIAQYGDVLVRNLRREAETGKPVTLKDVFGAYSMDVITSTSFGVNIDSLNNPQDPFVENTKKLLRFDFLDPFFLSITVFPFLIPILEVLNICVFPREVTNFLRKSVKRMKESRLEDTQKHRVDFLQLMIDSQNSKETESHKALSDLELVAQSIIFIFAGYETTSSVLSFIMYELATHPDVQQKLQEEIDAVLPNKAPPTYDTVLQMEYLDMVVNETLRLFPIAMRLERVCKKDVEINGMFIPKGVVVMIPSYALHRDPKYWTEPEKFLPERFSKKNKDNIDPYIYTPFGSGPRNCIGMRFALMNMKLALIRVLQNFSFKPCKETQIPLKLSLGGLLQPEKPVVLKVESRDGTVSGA
Cytochrome P450 2C19, sequence (P33261 whole entry): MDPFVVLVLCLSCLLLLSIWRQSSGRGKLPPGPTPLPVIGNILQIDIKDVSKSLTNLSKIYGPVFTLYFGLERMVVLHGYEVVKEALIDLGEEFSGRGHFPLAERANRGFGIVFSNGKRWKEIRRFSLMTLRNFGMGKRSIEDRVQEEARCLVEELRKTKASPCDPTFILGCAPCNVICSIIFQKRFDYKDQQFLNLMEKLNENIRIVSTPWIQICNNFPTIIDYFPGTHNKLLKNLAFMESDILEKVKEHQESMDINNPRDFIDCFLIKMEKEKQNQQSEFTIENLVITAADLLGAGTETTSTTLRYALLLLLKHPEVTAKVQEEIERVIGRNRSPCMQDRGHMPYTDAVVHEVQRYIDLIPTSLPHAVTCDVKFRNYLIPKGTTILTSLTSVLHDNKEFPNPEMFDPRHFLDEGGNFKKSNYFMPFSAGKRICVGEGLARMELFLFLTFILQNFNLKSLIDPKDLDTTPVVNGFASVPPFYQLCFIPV

On to `C[C@@H]1c2nn[nH]c2CCN1C(=O)c1cccc(C(F)(F)F)c1Cl`, for which the Drug metabolism entry in the data set on Rattus norvegicus is “Metabolite_Detected”.

On to `C[C@@H]1c2nnn(-c3cc(F)ccn3)c2CCN1C(=O)c1cccc(C(F)(F)F)c1Cl`, for which the solubility at 72 h in [1] was 2.1 µM (≈ 0.924 µg/mL); in data set [2], 4.8 µM (≈ 2.11 µg/mL). In addition, the pIC50 against Cytochrome P450 2D6 was less than 5.00; at Cytochrome P450 3A4 it was less than 5.00; against Cytochrome P450 2C9, 5.55; in data set [3], less than 5.00; at Cytochrome P450 2C8 it was less than 5.00; at Cytochrome P450 1A2, less than 5.00. This compound also gave a pIC50 against Cytochrome P450 2C19 of 5.68. The fraction unbound at 6 h, 1 µM in data set [4] is 0.042; in [5], 0.052; in data set [6] it was 0.024.
